Data as given in ChEMBL document CHEMBL1145171, “Synthesis, biological evaluation, and molecular modeling investigation of new chiral fibrates with PPARalpha and PPARgamma agonist activity” (J Med Chem, 2005).

How the values were obtained:
[1] = molecular target: T1, Peroxisome proliferator-activated receptor alpha (Homo sapiens) (UniProt Q07869); experiment: Efficacy against human PPARalpha expressed in HepG2 cells relative to Wy-14,643; format: cell-based
T1 sequence (whole entry): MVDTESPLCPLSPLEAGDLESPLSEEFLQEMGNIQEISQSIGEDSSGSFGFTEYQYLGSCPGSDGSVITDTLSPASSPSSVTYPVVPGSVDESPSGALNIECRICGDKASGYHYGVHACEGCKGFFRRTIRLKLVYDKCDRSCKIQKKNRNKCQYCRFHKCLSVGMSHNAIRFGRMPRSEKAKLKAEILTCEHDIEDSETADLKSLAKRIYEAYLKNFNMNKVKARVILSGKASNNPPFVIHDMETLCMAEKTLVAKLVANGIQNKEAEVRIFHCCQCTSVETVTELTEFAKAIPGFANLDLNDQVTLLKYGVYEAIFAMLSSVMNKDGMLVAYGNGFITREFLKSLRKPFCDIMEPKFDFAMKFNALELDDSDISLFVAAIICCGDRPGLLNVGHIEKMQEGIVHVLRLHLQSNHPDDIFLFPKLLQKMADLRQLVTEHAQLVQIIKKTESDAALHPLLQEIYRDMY

[2] = molecular target: T2, Peroxisome proliferator-activated receptor alpha (Homo sapiens, UniProt Q07869); experiment: Effective concentration against human PPARalpha expressed in HepG2 cells; format: cell-based
T2 sequence (Q07869 whole entry): T1 sequence (whole entry)

[3] = molecular target: T3, Peroxisome proliferator-activated receptor gamma (Homo sapiens, UniProt P37231)
T3 sequence (P37231 whole entry): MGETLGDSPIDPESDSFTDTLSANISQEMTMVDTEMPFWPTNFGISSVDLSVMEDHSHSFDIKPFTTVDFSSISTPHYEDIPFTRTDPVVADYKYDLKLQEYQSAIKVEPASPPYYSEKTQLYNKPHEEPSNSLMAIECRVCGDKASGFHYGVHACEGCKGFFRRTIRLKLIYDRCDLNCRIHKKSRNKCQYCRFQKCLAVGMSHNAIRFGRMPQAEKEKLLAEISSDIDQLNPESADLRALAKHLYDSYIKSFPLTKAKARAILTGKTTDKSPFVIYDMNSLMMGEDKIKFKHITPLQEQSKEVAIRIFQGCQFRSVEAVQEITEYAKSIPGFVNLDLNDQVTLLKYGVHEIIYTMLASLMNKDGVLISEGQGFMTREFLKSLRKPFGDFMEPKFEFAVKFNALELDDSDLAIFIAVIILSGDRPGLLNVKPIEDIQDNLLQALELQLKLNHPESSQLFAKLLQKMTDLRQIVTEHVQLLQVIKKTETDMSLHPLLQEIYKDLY

[4] = molecular target: T4, Peroxisome proliferator-activated receptor alpha (Mus musculus, UniProt P23204); experiment: Effective concentration against murine PPARalpha in transactivation assay
T4 sequence (P23204 whole entry): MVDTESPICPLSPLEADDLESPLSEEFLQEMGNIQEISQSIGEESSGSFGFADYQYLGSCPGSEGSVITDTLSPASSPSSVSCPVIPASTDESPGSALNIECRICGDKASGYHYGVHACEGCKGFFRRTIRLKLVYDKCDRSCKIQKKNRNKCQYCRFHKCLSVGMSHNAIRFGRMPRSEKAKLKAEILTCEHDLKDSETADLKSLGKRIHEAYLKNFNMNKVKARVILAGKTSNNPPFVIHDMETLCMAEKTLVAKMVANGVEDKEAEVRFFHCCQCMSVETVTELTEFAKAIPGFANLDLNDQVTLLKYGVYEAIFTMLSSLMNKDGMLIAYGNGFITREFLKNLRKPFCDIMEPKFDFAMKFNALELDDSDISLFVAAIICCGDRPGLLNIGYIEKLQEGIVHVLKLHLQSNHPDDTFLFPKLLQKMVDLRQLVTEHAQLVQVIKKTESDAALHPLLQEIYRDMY

[5] = molecular target: T5, Peroxisome proliferator-activated receptor alpha (Mus musculus) (UniProt P23204); experiment: Efficacy against murine PPARalpha relative to Wy-14,643
T5 sequence (whole entry): T4 sequence (P23204 whole entry)

[6] = molecular target: T3, Peroxisome proliferator-activated receptor gamma; experiment: Effective concentration against human PPARgamma expressed in HepG2 cells; i.a = inactive at tested concentration; format: cell-based
[7] = molecular target: T2, Peroxisome proliferator-activated receptor alpha; experiment: Effective concentration against human PPARalpha expressed in HepG2 cells; i.a = inactive at tested concentration; format: cell-based

SMILES | Efficacy [1] | EC50 [2] | EC50 [3] | EC50 [4] | Efficacy [5] | EC50 [6] | EC50 [7]
CCC[C@@H](Oc1ccc2ccccc2c1)C(=O)O | 10.5 | 3.9 µM | 12.5 µM |  |  |  | 
O=C(O)[C@H](Cc1ccccc1)Oc1ccc(Cl)cc1 | 99.4 | 3.9 µM | 2.7 µM | 1.3 µM | 49.1 |  | 
CC(=O)c1ccc(O[C@@H](Cc2ccccc2)C(=O)O)cc1 | 68.3 | 13.5 µM | 12.4 µM |  |  |  | 
O=C(O)[C@H](Cc1ccccc1)Oc1ccc(-c2ccccc2)cc1 | 124 |  |  | 0.2 µM | 99.3 |  | 
CCc1ccc(O[C@@H](Cc2ccccc2)C(=O)O)cc1 | 114 | 0.7 µM | 3.6 µM | 0.35 µM | 127 |  | 
COc1ccc(O[C@@H](Cc2ccccc2)C(=O)O)cc1 | 80.7 | 2.5 µM | 20.1 µM |  |  |  | 
O=C(O)[C@H](Cc1ccccc1)Oc1ccc(C(F)(F)F)cc1 | 80.7 | 0.5 µM | 0.9 µM | 0.27 µM | 107 |  | 
O=C(O)[C@H](Cc1ccccc1)Oc1ccc2ccccc2c1 | 130 | 1.4 µM | 1.5 µM |  |  |  | 
O=C(O)[C@H](Cc1ccccc1)Oc1ccc(CO)cc1 | 38.2 | 28.7 µM | 25.7 µM |  |  |  | 
CCC[C@H](OCc1ccc(-c2ccc(Cl)cc2)cc1)C(=O)O | 29.8 | 3.9 µM | 8.9 µM |  |  |  | 
O=C(O)[C@@H](Cc1ccccc1)Oc1ccc(Cl)cc1 | 14.3 | 10.9 µM | 10.5 µM |  |  |  | 
Cc1cccc(Nc2cc(Cl)nc(SCC(=O)O)n2)c1C [PIRINIXIC ACID] | 100 |  |  |  | 100 | Not Active | 
CN(CCOc1ccc(CC2SC(=O)NC2=O)cc1)c1ccccn1 (centres undefined) [ROSIGLITAZONE] |  |  |  |  |  |  | Not Active
CC(C)(Oc1ccc(Cl)cc1)C(=O)O [CLOFIBRIC ACID] | 89.7 | 39.6 µM | 309 µM | 42 µM | 67.2 |  | 
CCC[C@@H](OCc1ccc(-c2ccc(Cl)cc2)cc1)C(=O)O | 36.6 | 4 µM | 5.4 µM |  |  |  | 
O=C(O)[C@H](Cc1ccccc1)Oc1ccc(-c2cccs2)cc1 | 93.2 | 0.9 µM | 1.6 µM | 0.15 µM | 70.7 |  | 
CCC[C@H](Oc1ccc2ccccc2c1)C(=O)O | 95.6 | 8.4 µM | 7.2 µM |  |  |  | 
